# Measurements: US20240417687A1, “THYMIC CELLS AND METHODS OF MAKING” (Thymmune Therapeutics, Inc., priority 2021, published 2024)
# B1: RANKL: growth factor important for late maturation of TEPs to TECs (protein, UniProt O14788 140-317, looked up)
# Tumor necrosis factor ligand …: IRAEKAMVDGSWLDLAKRSKLEAQPFAHLTINATDIPSGSHKVSLSSWYHDRGWAKISNMTFSNGKLIVNQDGFYYLYANICFRHHETSGDLATEYLQLMVYVTKTSIKIPSSHTLMKGGSTKYWSGNSEFHFYSINVGGFFKLRSGEEISIEVSNPSLLDPDQDATYFGAFKVRDID
# B2: FGF10: growth factor important for late maturation of TEPs to TECs (protein, UniProt O15520 38-208, looked up)
# Fibroblast growth factor 10: QALGQDMVSPEATNSSSSSFSSPSSAGRHVRSYNHLQGDVRWRKLFSFTKYFLKIEKNGKVSGTKKENCPYSILEITSVEIGVVAVKAINSNYYLAMNKKGKLYGSKEFNNDCKLKERIEENGYNTYASFNWQHNGRQMYVALNGKGAPRRGQKTRRKNTSAHFLPMVVHS
# B3: FGF7: growth factor important for late maturation of TEPs to TECs (protein, UniProt P21781 32-194, looked up)
# Fibroblast growth factor 7: CNDMTPEQMATNVNCSSPERHTRSYDYMEGGDIRVRRLFCRTQWYLRIDKRGKVKGTQEMKNNYNIMEIRTVAVGIVAIKGVESEFYLAMNKEGKLYAKKECNEDCNFKELILENHYNTYASAKWTHNGGEMFVALNQKGIPVRGKKTKKEQKTAHFLPMAIT
# B4: BMP: growth factor BMP4, crucial for development and maturation of thymic progenitor cells (protein, UniProt P12644 293-408, looked up)
# Bone morphogenetic protein 4: SPKHHSQRARKKNKNCRRHSLYVDFSDVGWNDWIVAPPGYQAFYCHGDCPFPLADHLNSTNHAIVQTLVNSVNSSIPKACCVPTELSAISMLYLDEYDKVVLKNYQEMVVEGCGCR
# modifications: Bone morphogenetic protein 4
# notes: growth factor BMP4, crucial for development and maturation of thymic progenitor cells
# What was measured:
# Format in all cases: cell-based, human
# TEP populations = experiment: Oct4 and Nanog expression in TEP populations treated with PluriSIn-1
# Procedure: On days 19-22, cells were cultured in TEC media. On day19, equal amount of freshly made TEC media (500 μl) was replaced gently without disturbing the aggregates. TEC media was prepared to include Basal Media: DMEM-F12, FGF10 (50 ng/ml), IL-22 (20 ng/ml), FGF7/KGF (50 ng/ml), RANKL/TRANCE (50 ng/ml), BMP4 (50 ng/ml), FGF8b (50 ng/ml), CHIRR99 (2 μM), Ascorbic Acid (10 μM), Insulin-Transferrin-Selenium (ITS-G) (1:1000), KSR (0.0025%), Pen strep (1:200), B27 (without VIT A) (1:200), Glutamax (1:100), BME (1:100), N2(1:100), NEAA (1:400), Glutamax (100×), and BME (100×). On day 20, equal amount of freshly prepared TEC media (500 ul) along with Plurisin #1(20 μM) was added (Groups-Untreated and Treated). On day21, equal amount of freshly made TEC media (500 ul) was replaced gently without disturbing the aggregates. On day22, the cells were treated with Accutase and were frozen using Hypothermosol-FRS Media. The cells were split into the following groups for experimentation. Group 37FT1 (8.85M Treated and 9.5M untreated groups) was thawed in 3D and maintained in TEC media (Y27-10 uM on day1) for 6 days. On Day 6, cells were treated with 20 μM Plurisin #1 (24 hours) and were transplanted on day7 into 4 animals. Group 37FT2 (8.85M per plate) was thawed in 3D and maintained in TEC media (Y27-10 uM on day1) for 6 days. […]
# iPSCs = experiment: Optimizing 3D differentiation of iPSCs to definitive endoderm (Experiments 21, 22, 23)
# Procedure: In this experiment, the effect of adding PI-103 to Experiment 21/22 Medium B was tested. The effect of transitioning to 2D culture at the AFE stage was also tested. Differentiation of iPSCs into DE requires proper timing for introducing small molecules and growth factors. On Day 1-2, Experiment 21/22 Media A comprising DMEM-F12 and factors/small molecules namely Activin A (100 ng/mL), CHIR99021 2 μM, ITS (1:1000), KSR (0.05%), Pen strep (100×), PI-103 (25 nM) and NEAA (100×) was added. On day 3-5, Experiment 21/22 Media B comprising DMEM-F12 and factors/small molecules namely Activin A (100 ng/mL), LDN193189 (200 nM), PI-103 (25 nM), Insulin-Transferrin-Selenium (ITS-G) (1:1000), KSR (0.05%), Pen strep (100×) and NEAA (100×) was added. In Experiment 22, PI-103 (25 nM) was excluded. The effect of transitioning from 3D to 2D culture at VPE stage was tested. The impact of CHIR99021 addition to Experiment 23 Medium B was tested. Differentiation of iPSCs into DE requires proper timing for introducing small molecules and growth factors. On day 1-2, cells were cultured in Experiment 23 Media A comprising DMEM-F12 and small molecules/factors namely Activin A (100 ng/mL), CHIR99021 2 μM, ITS (1:1000), KSR (0.05%), Pen strep (100×), PI-103 (25 nM), and NEAA (100×). On day 3-4, Experiment 23 Media B containing DMEM-F12 and small molecules/factors namely Activin A (100 ng/mL), CHIRR9901 (2 μM), LDN193189 (200 nM), PI-103 (25 nM), Insulin-Transferrin-Selenium (ITS-G) (1:1000), KSR (0.05%), Pen strep (100×), and NEAA (100×). On day 5, Experiment 23 Media B containing DMEM-F12 and small molecules/factors namely Activin A (100 ng/mL), LDN193189 (200 nM), PI-103 (25 nM), Insulin-Transferrin-Selenium (ITS-G) (1:1000), KSR (0.05%), Pen strep (100×), NEAA (100×) was added. Experiment 21 and Experiment 23 described in Example 11 were designed to identify optimal conditions for 3D differentiation to DE. […] Sox17/FoxA2 double positive were higher in Experiment 23, whereas there were more Sox17/FoxA2 negative cells in Experiment 21 and Experiment 22.
# TEPs = experiment: Extended culture of TEPs with TEP medium supplemented with growth factors (Experiments 29, 30); conditions: TEP medium supplemented with FGF7, FGF10 and RANKL together, Experiment 29 and 30
# Procedure: For this differentiation step, VPE cells were cultured in thymic cell media e.g. TEP media or TEC media. On days 13-18, media was replaced for Experiment 29 TEP media containing Basal Media: DMEM-F12, FGF10 (50 ng/ml), BMP4 (50 ng/ml), FGF8b (50 ng/ml), CHIRR99 (2 μM), Ascorbic Acid (10 μM), Insulin-Transferrin-Selenium (ITS-G) (1:1000), KSR (0.0025%), Pen strep (1:200), B27 (without VIT A) (1:200), Glutamax (1:100), BME (1:100), N2(1:100), and NEAA (1:400). On day 13, equal amount of freshly made TEP media (500 ul) was added gently without disturbing the aggregates. On day 14-18, 50% of supernatant was removed and freshly prepared TEP media (500 ul) was added per well. On days 19-22, media was replaced with TEC media containing Basal Media: DMEM-F12, FGF10 (50 ng/ml), FGF7/KGF (50 ng/ml), RANKL/TRANCE (50 ng/ml), BMP4 (50 ng/ml), FGF8b (50 ng/ml), CHIRR99 (2 μM), Ascorbic Acid (10 μM), Insulin-Transferrin-Selenium (ITS-G) (1:1000), KSR (0.0025%), Pen strep (1:200), B27 (without VIT A) (1:200), Glutamax (1:100), BME (1:100), N2(1:100), NEAA (1:400), Glutamax (100×), and BME (100×). On days 20-22, 50% of supernatant was removed and freshly prepared TEC media (500 ul) was added per well. On day 22, Experiment 29B was reseeded as single cells in suspension (3D) and on Geltrex coated plates (2D). Remaining cells were frozen. Frozen Experiment 29B were thawed in suspension and maintained in TEC media.
# For this differentiation step, VPE cells were cultured in thymic cell media e.g. TEP media or TEC media. […]
# In experiments 16 through 23, the expression of FOXN1 and other markers expression by Day5 of TEP differentiation. […] In Exp 29-TEPs, FOXN1 expression was detected at week 1 of TEP stage. When TEPs were reseeded into 2D culture, no FOXN1 expression was detected after 1 week but FOXN1 was detected by week 2 in culture. In Exp29B-TEP2-3D, where single cell TEP were resuspended into 3D-aggregate culture, FOXN1 expression was detected already by 1 week and became even higher by second week.
# [1] = tested on: Spheroids induced to differentiate from iPSC state to TEP; experiment: Effect of timing of BMP addition on developmental gene expression in spheroids differentiating from iPSC to TEP; conditions: with or without BMP at early and late TEP stages
# Text: Differentiation of DE cells to thymic cells can be promoted by adding factors known to be important for DE to thymic differentiation. An example is BMP which is known to be crucial for the development and maturation of thymic progenitor cells from the third pharyngeal pouch. The impact of the timing of addition of BMP was explored (FIG. 2). Spheroids were induced to differentiate from iPSC state to TEP and timing of addition of BMP was varied. At different stages (DE, AFE, VPE, early and late TEP) spheroids were collected and analyzed for biomarkers related to the different stages. We compared condition with or without BMP at early and late TEP stages.
molecule,measurement,setting,value
O=C(NNc1ccccc1)c1ccncc1 [PluriSIn-1],Oct4 and Nanog expression,"TEP populations; one 24-hour pulse before freezing and one 24-hr pulse after thawing, compared to one pulse",lower Oct4 and Nanog expression
same,Oct4 and Nanog expression,"TEP populations; one dose alone, different iPSC cell line",sufficient to reduce Oct4 and Nanog expression
Oc1cccc(-c2nc(N3CCOCC3)c3oc4ncccc4c3n2)c1 [PI-103],DE differentiation,"iPSCs; PI-103 (25 nM) added to Experiment 21/22 Medium B, day 3-5, excluded in Experiment 22",enhanced DE differentiation
"Cc1c[nH]c(-c2cnc(NCCNc3ccc(C#N)cn3)nc2-c2ccc(Cl)cc2Cl)n1 [CHIRR99, CHIR99021]",differentiation,"iPSCs; 2 μM added to Experiment 23 Medium B, day 3-4",enhance differentiation
same,differentiation efficiency to DE,iPSCs; Experiment 23 with Wnt activator versus Experiment 21 and 22 without,increased differentiation efficiency to DE
B1,duration of TEP culture while maintaining the expression of FOXN1,TEPs,extended beyond 5 days and up to 2 weeks
B2,duration of TEP culture while maintaining the expression of FOXN1,TEPs,extended beyond 5 days and up to 2 weeks
B3,duration of TEP culture while maintaining the expression of FOXN1,TEPs,extended beyond 5 days and up to 2 weeks
B4,PAX1 and PAX9 expression,[1],suppressed
same,TBX1 and HOXA3 expression,[1],upregulated
